Laboratory results: the supplement of paper PMC13380429

Key:
Settings in all cases: 72 h
Calu-3 [1] = assay: cell viability relative to DMSO; higher = less toxic
U2OS [2] = assay: as above
Vero E6 [3] = assay: as above
Caco-2 [4] = assay: as above
HepG2 [5] = assay: as above
Calu-3 [6] = assay: drug sensitivity score (DSS) for viability; higher = more toxic; extreme values may be limits of the assay
U2OS [7] = assay: as above
Vero E6 [8] = assay: as above
Caco-2 [9] = assay: as above
HepG2 [10] = assay: as above
HepG2 [11] = assay: relative viability EC50 (midpoint between 100% and the lowest measured viability); higher = less toxic
U2OS [12] = assay: as above
Caco-2 [13] = assay: as above
Vero E6 [14] = assay: as above

| Structure (SMILES) | cell viability (Calu-3 [1]; 1 nM) [%] | cell viability (Calu-3 [1]; 10 nM) [%] | cell viability (Calu-3 [1]; 100 nM) [%] | cell viability (Calu-3 [1]; 1000 nM) [%] | cell viability (Calu-3 [1]; 10000 nM) [%] | cell viability (U2OS [2]; 1 nM) [%] | cell viability (U2OS [2]; 10 nM) [%] | cell viability (U2OS [2]; 100 nM) [%] | cell viability (U2OS [2]; 1000 nM) [%] | cell viability (U2OS [2]; 10000 nM) [%] | cell viability (Vero E6 [3]; 1 nM) [%] | cell viability (Vero E6 [3]; 10 nM) [%] | cell viability (Vero E6 [3]; 100 nM) [%] | cell viability (Vero E6 [3]; 1000 nM) [%] | cell viability (Vero E6 [3]; 10000 nM) [%] | cell viability (Caco-2 [4]; 1 nM) [%] | cell viability (Caco-2 [4]; 10 nM) [%] | cell viability (Caco-2 [4]; 100 nM) [%] | cell viability (Caco-2 [4]; 1000 nM) [%] | cell viability (Caco-2 [4]; 10000 nM) [%] | cell viability (HepG2 [5]; 1 nM) [%] | cell viability (HepG2 [5]; 10 nM) [%] | cell viability (HepG2 [5]; 100 nM) [%] | cell viability (HepG2 [5]; 1000 nM) [%] | cell viability (HepG2 [5]; 10000 nM) [%] | drug sensitivity score (Calu-3 [6]) | drug sensitivity score (U2OS [7]) | drug sensitivity score (Vero E6 [8]) | drug sensitivity score (Caco-2 [9]) | drug sensitivity score (HepG2 [10]) | relative viability EC50 (HepG2 [11]) [µM] | relative viability EC50 (U2OS [12]) [µM] | relative viability EC50 (Caco-2 [13]) [µM] | relative viability EC50 (Vero E6 [14]) [µM] |
| --- | --- | --- | --- | --- | --- | --- | --- | --- | --- | --- | --- | --- | --- | --- | --- | --- | --- | --- | --- | --- | --- | --- | --- | --- | --- | --- | --- | --- | --- | --- | --- | --- | --- | --- |
| CCCC(CCC)C(=O)Nc1ccn([C@@H]2O[C@H](CO)[C@@H](O)C2(F)F)c(=O)n1 | 98.3 | 97.3 | 91 | 91.7 | 67.9 | 97.5 | 100 | 101 | 110 | 68.2 | 93.7 | 93 | 87.7 | 98.3 | 63 | 94.7 | 106 | 94.3 | 96.3 | 66.7 | 98.3 | 108 | 85 | 39.4 | 30.1 | 2.3 | 1 | 2 | 2.1 | 13 | 0.259 |  |  |  |
| CNC(=O)c1ccc(C)c(-n2c(C)cc(OCc3ccc(F)cc3F)c(Br)c2=O)c1 | 94.7 | 92.6 | 74 | 93.6 | 56.8 | 101 | 99.2 | 90.2 | 81.9 | 78.7 | 98.7 | 92 | 85.5 | 82.3 | 58.8 | 90.9 | 95.3 | 93 | 79.6 | 75.4 | 111 | 104 | 106 | 99.7 | 67.7 | 5.2 | 3.1 | 5 | 3.1 | 1.5 |  | > 10 | > 10 |  |
| Cc1ccc(/C=N/NC(=O)c2ccccc2Oc2ccccc2)o1 |  |  |  |  |  | 106 | 97.3 | 98.1 | 93 | 98.6 | 97 | 101 | 98.9 | 95.6 | 93.7 | 96 | 99.6 | 100 | 95.2 | 88.7 | 103 | 103 | 91.7 | 94.2 | 102 |  | 0 | 0 | 0.1 | 0 | > 10 | > 10 | > 10 | > 10 |
| Cn1ncnc1COc1nn2c(-c3cc(F)ccc3F)nnc2cc1C(C)(C)C |  |  |  |  |  |  |  |  |  |  |  |  |  |  |  |  |  |  |  |  |  |  |  |  |  | 0 | 0 | 0 |  | 0 |  |  |  |  |
| O=C(NCC(=O)N1CC[C@H](N[C@H]2CC[C@@](O)(c3ccc(-c4ncccn4)cn3)CC2)C1)c1cccc(C(F)(F)F)c1 |  |  |  |  |  | 97.8 | 105 | 97.7 | 101 | 96.4 | 107 | 102 | 101 | 99.4 | 98.7 | 104 | 108 | 92.7 | 92.7 | 96.8 | 103 | 97.6 | 105 | 97.4 | 100 |  | 0 | 0 | 0 | 0 | > 10 | > 10 | > 10 | > 10 |
| CCCCCCCN(CC)CCC[C@@H](O)c1ccc(NS(C)(=O)=O)cc1 (racemic) [ibutilide] |  |  |  |  |  |  |  |  |  |  |  |  |  |  |  |  |  |  |  |  |  |  |  |  |  | 0 | 0 | 0 |  | 0 |  |  |  |  |
| CCCCCCCCCCCCCCCC=O [1-hexadecanal] |  |  |  |  |  | 102 | 104 | 96.3 | 104 | 97.5 | 106 | 98.4 | 106 | 96.5 | 102 | 104 | 98 | 85.6 | 95.2 | 108 | 109 | 105 | 102 | 95.8 | 97 |  | 0 | 0 | 0 | 0 | > 10 | > 10 | > 10 | > 10 |
| CC(=C\c1ccc(Cl)cc1)/C(C)=N/O [AP-18] |  |  |  |  |  | 100 | 106 | 97.6 | 103 | 100 | 104 | 106 | 102 | 105 | 99.3 | 99.5 | 104 | 90.4 | 98.1 | 95.7 | 103 | 95.3 | 89.6 | 101 | 107 |  | 0 | 0 | 0 | 0 | > 10 | > 10 | > 10 | > 10 |
| CC(C)Nc1cc(-c2c[nH]c(C(=O)N[C@H](CO)c3cccc(Cl)c3)c2)c(Cl)cn1 [BVD-523] | 106 | 97.4 | 89.7 | 92.1 | 57.5 | 103 | 101 | 95.5 | 96.7 | 69.3 | 100 | 104 | 91.9 | 80.7 | 52.9 | 105 | 106 | 101 | 76.7 | 61.2 | 104 | 102 | 92.6 | 51.4 | 19.5 | 3.5 | 1.9 | 4.5 | 4.7 | 10.5 | 0.703 |  |  |  |
